Experimental data: PubChem BioAssay (NCI)
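Tested at 5 concentrations; 48 h exposure; 96-well plates; endpoints linearly interpolated, else capped at highest concentration. GI50 is the concentration that inhibits growth by half. TGI: total growth inhibition.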

Experiments:
Experiment in all cases: DTP human tumour cell line panel, 48 h
[1] = tested on: HCT-116 colon
[2] = tested on: HOP-62 NSCLC
[3] = tested on: IGROV1 ovarian
[4] = tested on: NCI-H226 lung
[5] = tested on: PC-3 prostate
[6] = tested on: RPMI-8226 leukemia
[7] = tested on: SF-268 CNS
[8] = tested on: SK-MEL-28 melanoma
[9] = tested on: SK-OV-3 ovarian
[10] = tested on: SN12C renal

Row | Structure (SMILES) | GI50 [1] [µM] | TGI [1] [µM] | GI50 [2] [µM] | TGI [2] [µM] | GI50 [3] [µM] | TGI [3] [µM] | GI50 [4] [µM] | TGI [4] [µM] | GI50 [5] [µM] | TGI [5] [µM] | GI50 [6] [µM] | TGI [6] [µM] | GI50 [7] [µM] | TGI [7] [µM] | GI50 [8] [µM] | TGI [8] [µM] | GI50 [9] [µM] | TGI [9] [µM] | GI50 [10] [µM] | TGI [10] [µM]
1 | Cc1cc(C)c(S(=O)(=O)N(CCc2cccc(Br)c2)Cc2ccc(-c3cccc(S(C)(=O)=O)c3)cc2)c(C)c1 | > 100 | > 100 | > 100 | > 100 | > 100 | > 100 | > 100 | > 100 | > 100 | > 100 | > 100 | > 100 | > 100 | > 100 | > 100 | > 100 | > 100 | > 100 | > 100 | > 100
2 | CN(C)CCSCCO | – | > 100 | – | > 100 | – | > 100 | – | > 100 | – | > 100 | – | > 100 | – | > 100 | – | > 100 | – | > 100 | – | > 100
3 | Nc1ccc(C(OC(=O)c2cc3ccccc3c(Cc3c(O)c(C(=O)OC(c4ccc(N)cc4)(c4ccc(N)cc4)c4ccc(N)cc4)cc4ccccc34)c2O)(c2ccc(N)cc2)c2ccc(N)cc2)cc1 | 0.784 | 11.4 | 0.331 | 14.1 | 9.89 | 85 | 1.76 | 15.7 | 1.22 | 20.4 | 0.476 | > 100 | 0.471 | 18.7 | 3.49 | 16.4 | 2.87 | 14.5 | 0.321 | 59.1
4 | CN(C)CCCCn1ccc2c1C(=O)c1c(c(O)c3ccccc3c1O)C2=O | 9.03 | 21.1 | 15.8 | 31 | 18.6 | > 100 | 6.56 | 21.8 | 10 | 23.4 | 1.74 | 7.52 | 11 | 30.6 | 14.7 | 28.2 | 11.4 | 24 | 14.1 | 28.6
5 | COc1c(Cl)ccc2c(-c3nc4cc(Cl)c(F)cc4s3)cc(=O)oc12 | 14.1 | > 61.6 | 6.26 | 20.7 | 1.68 | 3.97 | 11.7 | > 69.3 | 4.46 | 15.5 | 3.58 | > 38.2 | 2.93 | 8.89 | 26.5 | > 78 | 7.03 | 19.9 | 23.2 | > 90.3
6 | NCCCN1CCN(CCCNc2nc3ccccc3c3[nH]c4ccccc4c23)CC1 | 0.337 | 2.7 | 0.26 | 1.08 | 0.638 | 4.38 | 0.442 | 1.1 | 0.437 | 2.98 | 0.241 | 0.817 | 0.316 | 1.94 | 0.888 | 2.32 | 6.7 | 41.4 | – | 1.05
